Measured values: US9328106B2, “Cyclic ether pyrazol-4-yl-heterocyclyl-carboxamide compounds and methods of use” (Genentech, Inc., priority 2012, dated 2016)
Where two headings read alike, the source gives them in different places.

Biological target: PIM1 (Homo sapiens (Human), UniProt P11309)
Assay: biochemical
Assay type: biochemical
[1] = 20 pM PIM1, 1 μM FAM-peptide, 10 μM ATP, 90 minutes at room temperature, read-out: PIM1 LC3K (KI)

PIM1, sequence (P11309 whole entry): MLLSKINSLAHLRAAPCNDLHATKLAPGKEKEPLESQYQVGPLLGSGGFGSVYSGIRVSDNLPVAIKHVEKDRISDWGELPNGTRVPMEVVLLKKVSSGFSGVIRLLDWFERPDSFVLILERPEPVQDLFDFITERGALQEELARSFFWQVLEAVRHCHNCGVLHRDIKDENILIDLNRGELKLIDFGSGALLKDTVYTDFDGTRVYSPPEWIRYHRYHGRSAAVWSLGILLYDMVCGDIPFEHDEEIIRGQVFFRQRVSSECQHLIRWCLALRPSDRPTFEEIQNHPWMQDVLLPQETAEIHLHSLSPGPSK

SMILES | Ki [nM] | Ki [1] [nM]
[2H]C([2H])([2H])O[C@H]1CO[C@@H](c2c(NC(=O)c3nc(-c4c(F)cccc4F)sc3N)cnn2C)CC[C@@H]1N [Example 180, 5-Amino-N-[5-[(2R,5S,6R)-5-amino-6-(trideuteriomethoxy)oxepan-2-yl]-1-methyl-pyrazol-4-yl]-2-(2,6-difluorophenyl)thiazole-4-carboxamide] | 0.017 | 
Cn1ncc(NC(=O)c2nc(-c3c(F)cccc3C(F)(F)F)sc2N)c1[C@@H]1CC[C@@H](N)[C@@H](F)CO1 [Example 278, 5-amino-N-(5-((2S,5R,6R)-5-amino-6-fluorooxepan-2-yl)-1-methyl-1H-pyrazol-4-yl)-2-(2-fluoro-6-(trifluoromethyl)phenyl)thiazole-4-carboxamide] |  | 0.061
C[C@@H]1O[C@H](c2c(NC(=O)c3nc(-c4c(F)cccc4F)sc3N)cnn2C)CC(F)(F)[C@]1(C)N [Example 185, 5-Amino-N-(5-((2S,5R,6S)-5-amino-4,4-difluoro-5,6-dimethyltetrahydro-2H-pyran-2-yl)-1-methyl-1H-pyrazol-4-yl)-2-(2,6-difluorophenyl)thiazole-4-carboxamide] |  | 4.35
[2H]C([2H])([2H])O[C@@H]1CO[C@H](c2c(NC(=O)c3nc(-c4c(F)cccc4F)sc3N)cnn2C)CC[C@H]1N [Example 174, 5-Amino-N-[5-[(2S,5R,6S)-5-amino-6-(trideuteriomethoxy)oxepan-2-yl]-1-methyl-pyrazol-4-yl]-2-(2,6-difluorophenyl)thiazole-4-carboxamide] | 0.135 | 
COC(C)c1cc(F)c(-c2nc(C(=O)Nc3cnn(C)c3[C@@H]3CC[C@@H](N)[C@@H](F)CO3)ccc2F)c(F)c1 (stereo partly drawn) [Example 211, N-(5-((2S,5R,6R)-5-amino-6-fluorooxepan-2-yl)-1-methyl-1H-pyrazol-4-yl)-6-(2,6-difluoro-4-(1-methoxyethyl)phenyl)-5-fluoropicolinamide] |  | 0.037
CC(=O)Nc1ccc(-c2nc(C(=O)Nc3cnn(C)c3[C@@H]3CC[C@@H](N)[C@H](F)CO3)cs2)cn1 [Example 386, 2-(6-acetamido-3-pyridyl)-N-[5-[(2S,5R,6S)-5-amino-6-fluoro-oxepan-2-yl]-1-methyl-pyrazol-4-yl]thiazole-4-carboxamide] |  | 0.389
Cn1ncc(NC(=O)c2ccc(F)c(-c3c(F)cc(C4(O)COC4)cc3F)n2)c1[C@@H]1CC[C@@H](N)[C@H](F)CO1 [Example 193, N-(5-((2S,5R,6S)-5-amino-6-fluorooxepan-2-yl)-1-methyl-1H-pyrazol-4-yl)-6-(2,6-difluoro-4-(3-hydroxyoxetan-3-yl)phenyl)-5-fluoropicolinamide] |  | 0.034
Cn1ncc(NC(=O)c2nc(-c3cccc(F)c3C(F)(F)F)sc2N)c1[C@@H]1CC[C@@H](N)[C@@H](F)CO1 [Example 267, 5-amino-N-(5-((2S,5R,6R)-5-amino-6-fluorooxepan-2-yl)-1-methyl-1H-pyrazol-4-yl)-2-(3-fluoro-2-(trifluoromethyl)phenyl)thiazole-4-carboxamide] |  | 0.098
Cn1ncc(NC(=O)c2csc(-c3c(F)cc(C4(O)CCOC4)cc3F)n2)c1[C@@H]1CC[C@@H](N)[C@H](F)CO1 (stereo partly drawn) [Example 215, N-(5-((2S,5R,6S)-5-amino-6-fluorooxepan-2-yl)-1-methyl-1H-pyrazol-4-yl)-2-(2,6-difluoro-4-(3-hydroxytetrahydrofuran-3-yl)phenyl)thiazole-4-carboxamide] |  | 0.00762
COC(c1cc(F)c(-c2nc(C(=O)Nc3cnn(C)c3[C@@H]3CC[C@@H](N)[C@H](F)CO3)cs2)c(F)c1)C1CC1 (stereo partly drawn) [Example 276, N-(5-((2S,5R,6S)-5-amino-6-fluorooxepan-2-yl)-1-methyl-1H-pyrazol-4-yl)-2-(4-(cyclopropyl(methoxy)methyl)-2,6-difluorophenyl)thiazole-4-carboxamide] |  | 0.084
Cn1ncc(NC(=O)c2csc(-c3c(F)cc(C4(O)COC4)cc3F)n2)c1[C@@H]1CC[C@@H](N)[C@H](F)CO1 [Example 224, N-(5-((2S,5R,6S)-5-amino-6-fluorooxepan-2-yl)-1-methyl-1H-pyrazol-4-yl)-2-(2,6-difluoro-4-(3-hydroxyoxetan-3-yl)phenyl)thiazole-4-carboxamide] |  | 0.035
